{"source": "patent EP1344776A1", "about": "“5- 2-hydroxy-3-[1-(3-trifluoromethylphenyl)-cyclopropyl]-propionylamino -phtalide and 6- 2-hydroxy-3-[1-(3-trifluoromethylphenyl)-cyclopropyl]-propionylamino -4-methyl-2,3-benzoxazin-1-one derivatives with progesterone receptor modulating activity for use in fertility control, hormone replacement …” (Schering Aktiengesellschaft, priority 2002, dated 2003)", "key": {"[1]": {"target": "T1, mineralocorticoid receptor (MR) (Homo sapiens, UniProt P08235)", "T1 sequence (P08235 1-984)": "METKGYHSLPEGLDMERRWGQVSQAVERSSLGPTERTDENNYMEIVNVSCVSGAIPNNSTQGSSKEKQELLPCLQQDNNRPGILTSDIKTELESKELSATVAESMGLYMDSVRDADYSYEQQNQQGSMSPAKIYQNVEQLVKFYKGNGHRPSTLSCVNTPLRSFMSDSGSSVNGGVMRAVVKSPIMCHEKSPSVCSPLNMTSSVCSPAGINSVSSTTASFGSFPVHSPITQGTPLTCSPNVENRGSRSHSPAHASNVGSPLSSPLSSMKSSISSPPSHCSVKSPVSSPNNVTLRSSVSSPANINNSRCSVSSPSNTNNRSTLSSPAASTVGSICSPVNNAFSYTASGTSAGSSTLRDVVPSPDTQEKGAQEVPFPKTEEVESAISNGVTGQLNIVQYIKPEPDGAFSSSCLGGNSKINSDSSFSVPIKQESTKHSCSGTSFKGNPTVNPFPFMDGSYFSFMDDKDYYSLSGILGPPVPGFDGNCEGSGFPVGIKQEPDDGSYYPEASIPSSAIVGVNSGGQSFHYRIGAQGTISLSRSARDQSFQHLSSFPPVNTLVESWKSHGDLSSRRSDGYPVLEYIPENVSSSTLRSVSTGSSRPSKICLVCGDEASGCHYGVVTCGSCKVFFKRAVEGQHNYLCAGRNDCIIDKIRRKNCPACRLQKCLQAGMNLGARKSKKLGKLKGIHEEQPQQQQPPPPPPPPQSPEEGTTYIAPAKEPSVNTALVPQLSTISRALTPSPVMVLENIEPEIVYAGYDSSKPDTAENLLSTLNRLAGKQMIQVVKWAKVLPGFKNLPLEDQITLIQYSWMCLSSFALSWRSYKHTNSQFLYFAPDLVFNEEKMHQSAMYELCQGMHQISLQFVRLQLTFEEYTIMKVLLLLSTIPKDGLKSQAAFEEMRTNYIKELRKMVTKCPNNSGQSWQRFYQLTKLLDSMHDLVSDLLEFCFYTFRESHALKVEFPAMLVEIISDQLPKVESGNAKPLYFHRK", "assay": "Mineralocorticoid receptor binding", "conditions": "in vitro"}, "female rats": {"test_system": "female rats", "assay": "Ovulation inhibition test in rat", "type": "in vivo", "method": "Before the treatment is started, two […] cycles of female rats (weight: 190 to 210 g) were monitored. Only animals having a regular 4 day-cycle are used for the subsequent test. Starting in the metoestrus, the test compound is administered for 4 days (day 1 to 4) and the cycle is controlled thereafter.\nFor subcutaneous application, the test compounds are dissolved in benzyl benzoate/castor oil (1+9 v/v) and the daily dose is administered in a volume of 1 ml/kg body weight.\nFor peroral application, the test compounds are suspended in a carrier liquid (85 mg Myrj^R in 100 ml 0.9 % w/v NaCl solution) and the daily dose is administered in a volume of 2 ml/kg body weight.\nOn day 4, after the application of the test compound, those animals having estrus or metoestrus are ovariectomized under ether anesthesia on one side. Preparations of the tubes are prepared and they are investigated for ova by means of microscope. On day 5 all animals (intact and partly ovariectomized) are killed with carbon dioxide, the tubes are preserved and analyzed in the same way. It is then determined, as a percentage, in how many animals ovulation was inhibited."}, "[2]": {"assay": "Glucocorticoid / anti-glucocorticoid activity in vivo (changes in thymus weight)", "conditions": "concluded from changes in thymus weight"}, "juvenile female rabbits": {"test_system": "juvenile female rabbits", "assay": "Endometrial transformation in rabbit (Clauberg test)", "type": "in vivo", "conditions": "for McPhail Index: scores 1 to 4; for minimal effective dose: Oryctolagus cuniculus, read-out: Threshold Value"}}, "note": "Where two headings read alike, the source gives them in different places."}
{"smiles": "O=C1OCc2cc(NC(=O)C(O)(CC3(c4cc(C(F)(F)F)ccc4F)CC3)C(F)(F)F)ccc21", "note": "(single isomer, unassigned; (+)) [((+)-1), (+)-5-{2-hydroxy-3-[1-(2-fluoro-5-trifluoromethylphenyl)-cyclopropyl]-2-trifluoromethyl-propionylamino}-phthalide]", "values": [{"measurement": "affinity for the mineralocorticoid receptor (MR)", "setting": "[1]", "value": "negligible"}, {"measurement": "ED50", "setting": "female rats; Rattus norvegicus, ovulation inhibition, adult female rats (Table 1-a), read-out: ED50", "value": 0.045, "unit": "mg/kg"}, {"measurement": "% Inhibition", "setting": "female rats; ovulation inhibition, rat, dose 10 µg/kg, days 1 to 4", "value": 0, "unit": "%"}, {"measurement": "ED50", "setting": "female rats; rat (Table 1-b), read-out: Ovulation Inhibition (rat) [ED50]", "value": 0.04, "unit": "mg/kg"}, {"measurement": "glucocorticoid or anti-glucocorticoid activity in vivo", "setting": "[2]", "value": "does not seem to exhibit any glucocorticoid or any anti-glucocorticoid activity"}, {"measurement": "McPhail Index", "setting": "juvenile female rabbits; Oral (p.o.), 0.001 mg/kg", "value": 1.2}, {"measurement": "McPhail Index", "setting": "juvenile female rabbits; Oral (p.o.), 0.01 mg/kg", "value": 2.5}, {"measurement": "McPhail Index", "setting": "juvenile female rabbits; Oral (p.o.), 0.1 mg/kg", "value": 3.0}, {"measurement": "minimal effective dose", "setting": "juvenile female rabbits; sc, Subcutaneous (s.c.)", "value": "0.001 to 0.01", "unit": "mg/kg"}, {"measurement": "minimal effective dose", "setting": "juvenile female rabbits; Oral (p.o.)", "value": "0.001 to 0.01", "unit": "mg/kg"}, {"measurement": "McPhail Index", "setting": "juvenile female rabbits; Subcutaneous (s.c.), 0.001 mg/kg", "value": 1.0}, {"measurement": "McPhail Index", "setting": "juvenile female rabbits; Subcutaneous (s.c.), 0.01 mg/kg", "value": 2.7}, {"measurement": "McPhail Index", "setting": "juvenile female rabbits; Subcutaneous (s.c.), 0.1 mg/kg", "value": 3.8}]}
